Here are results for 21 molecules from US10513534B2, “2′-chloro nucleoside analogs for HCV infection” (priority 2012, dated 2019).

Where two headings read alike, the source gives them in different places.

One series has as its system HCV genotype 1b replicon. Kind of series: HCV replicon assay (Zluc luciferase). The class given is cell-based. The procedure:
Huh-7-derived cell line (Zluc) that harbors an HCV genotype 1b replicon and a luciferase reporter gene was grown in Dulbecco's Modified Eagle Medium (DMEM) supplemented with 10% fetal bovine serum, 2 mM GlutaMAX, 1% MEM nonessential amino acids, 100 IU/mL penicillin, 100 μg/mL streptomycin, and 0.5 mg/mL Geneticin® (G418). For dose response testing the cells were seeded in 96-well plates at 7.5×10^3 cells per well in a volume of 50 μL, and incubated at 37° C./5% CO2. Drug solutions were made up freshly in Huh-7 media as 2× stocks. Ten additional 5-fold dilutions were prepared from these stocks in DMEM without G418. At least three hours after Zluc cells were seeded, drug treatment was initiated by adding 50 μL of drug dilutions to the plates in duplicate. Final concentrations of drug ranged from 100 μM to […]. Cells were then incubated at 37° C./5% CO2. Alternatively, compounds were tested at two concentrations (1 μM and 10 μM). […] For this, media was removed from the plates via gentle tapping. Fifty microliters of ONE-glo luciferase assay reagent was added to each well. The plates were shaken gently for 3 min at room temperature and luminescence was measured on a Victor^3 V 1420 multilabel counter (Perkin Elmer) with a 1 second read time using a 700 nm cut-off filter. The EC50 values were calculated from dose response curves from the resulting best-fit equations determined by Microsoft Excel and XLfit 4.1 software. When screening at two fixed concentrations, the results were expressed as % inhibition at 1 μM and 10 μM.
(In general: A replicon is a self-replicating genome or part of one, used to study replication in cells.)

Series [1] is described as follows: Liver triphosphate pharmacokinetics after single oral dose in CD-1 mice.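 As to Ms Liver TP AUC: pmol·h/g liver normalized to a 1 µmol/kg dose.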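 As to Ms Liver TP Cmax: pmol/g liver normalized to a 1 µmol/kg dose.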 The class given is in vivo. The arrangement: key: + ≤ 15; 15 < ++ ≤ 50; 50 < +++ ≤ 100; 100 < ++++; BLQ = below limit of quantitation. Conditions: single oral dose 10 mg/kg in PEG 200. The procedure:
Internal standard solution was added to the homogenate followed by neutralization with 20% ammonium hydroxide solution and addition of 500 μL 1% formic acid. The tissue samples were extracted by weak anion exchange solid phase extraction (SPE). Post extraction, the eluates were evaporated under nitrogen, followed by reconstitution before injection onto the LC-MS/MS system.

The nature of series [2]: Plasma nucleoside pharmacokinetics after single oral dose in CD-1 mice.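 As to Ms Plasma nucleoside AUC: pmol·h/mL plasma normalized to a 1 µmol/kg dose.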 The class given is in vivo. Conditions: single oral dose 10 mg/kg in PEG 200. The procedure:
Plasma samples were analyzed for nucleoside by LC-MS/MS. The internal standard (IS) was either 2′-MeG-D3 or tiapride. For protein precipitation and extraction, each plasma sample (50 μL) was treated with 500 μL of 0.2% formic acid in acetonitrile and 20 μL of the internal standard working solution. After vortexing and centrifugation, 500 μL of the sample extracts were transferred to a new plate, dried under N2 at ˜28° C. and reconstituted with 75 μL of 0.2% FA in water. The extracts were chromatographed on an Aquasil C18 column using a gradient system of 0.2% formic acid in water and acetonitrile. The analytes were detected and quantified by tandem mass spectrometry in positive ion mode on an MDS Sciex API5000 equipped with a Turbo Ionspray® interface. The calibration range was 0.500 (LLOQ) to 200 ng/mL in mouse plasma.

The subject of the next series is Zluc cells. Kind of series: Cytotoxicity evaluation, CellTiter-Blue Cell Viability Assay. Conditions: Zluc cells, CellTiter-Blue.
Where [3] appears, read: Zluc cells, 72 hours; read-out: HCV Replicon EC50.

The term EC50 denotes the concentration giving half of the maximal effect. Turning to `CCOC(=O)COP(=O)(OC[C@H]1O[C@@H](n2ccc(=O)[nH]c2=O)[C@](C)(Cl)[C@@H]1O)Oc1ccccc1` (single isomer, unassigned) [Compound 72 Diastereomer 2], the EC50 in the series with HCV genotype 1b replicon (read-out: HCV Replicon EC50; Zluc cells, 72 hours) was over 10 µM.

As to `CC(C)OC(=O)[C@H](C)NP1(=O)OC[C@H]2O[C@@H](n3ccc(=O)[nH]c3=O)[C@](C)(Cl)[C@@H]2O1` (single isomer, unassigned; diastereomer 1) [Compound 38ii Diastereomer 1], in series [1], the “Ms Liver TP AUC” value is on record as “+ (+ ≤ 150)” and the “Ms Liver TP Cmax” value is reported as “+ (+ ≤ 15)”. Further, in series [2], the “Ms Plasma nucleoside AUC” value is “+++ (500 < +++ ≤ 1500)” and the “Ms Plasma nucleoside Cmax” value was “+++ (50 < +++ ≤ 100)”.

Broadly, the CC50 is the concentration giving 50% cytotoxicity. In the case of `CC(COC(=O)C(C)C)NP1(=O)OCC2OC(n3cnc4c(N)ncnc43)C(C)(Cl)C2O1` (single isomer, unassigned; diastereoisomer 2) [Compound 95 Diastereoisomer 2], on HCV genotype 1b replicon (setting [3]), the half-maximal effective concentration (EC50) lay in the range of 0.25 to 1 µM. In addition, the CC50 in the series on Zluc cells was over 50 µM.

In the case of `CC(C)OC(=O)[C@H](C)NP(=O)(OC[C@H]1O[C@@H](n2cnc3c(=O)[nH]c(N)nc32)[C@](C)(Cl)[C@@H]1O)Oc1ccccc1` (single isomer, unassigned) [Compound 21ii Diastereomer 2], the half-maximal effective concentration (EC50) in the series on HCV genotype 1b replicon (setting [3]) was over 10 µM. This molecule registered a 50% cytotoxic concentration (CC50) in the series with Zluc cells of over 50 µM.

With `CC(C)OC(=O)C(C)NP(=O)(OCC1OC(n2cnc3c(=O)[nH]c(N)nc32)C(C)(Cl)C1O)Oc1ccccc1` (mixture of isomers) [Compound 21ii Mixture of P-Diastereoisomers], the concentration giving a half-maximal response (EC50) on HCV genotype 1b replicon (setting [3]) was over 10 µM. This molecule registered a 50% cytotoxic concentration (CC50) with Zluc cells of over 50 µM.

Turning to `CC(C)(CO)C(=O)SCCOP(=O)(NCc1ccccc1)OC[C@H]1O[C@@H](n2ccc(=O)[nH]c2=O)[C@](C)(Cl)[C@@H]1O` (single isomer, unassigned) [Compound 54 Single Diastereoisomer], at HCV genotype 1b replicon (setting [3]), the EC50 was in the range of 1 to 10 µM. Further, the CC50 with Zluc cells was over 50 µM.

Consider `CC(C)OC(=O)[C@H](C)NP1(=O)OC[C@H]2O[C@@H](n3cnc4c(N)ncnc43)[C@](C)(Cl)[C@@H]2O1` (single isomer, unassigned; diastereoisomer 1) [Compound 77ii Diastereoisomer 1], for which the EC50 on HCV genotype 1b replicon (setting [3]) was in the range of 1 to 10 µM. The molecule further displayed a CC50 in the series on Zluc cells of over 50 µM.

Take `CC(C)OC(=O)[C@H](C)NP1(=O)OC[C@H]2O[C@@H](n3ccc(=O)[nH]c3=O)[C@](C)(Cl)[C@@H]2O1` (single isomer, unassigned; diastereomer 2) [Compound 38ii Diastereomer 2]: in series [1], the “Ms Liver TP AUC” value is “+++ (500 < +++ ≤ 1500)” and the “Ms Liver TP Cmax” value is on record as “++ (15 < ++ ≤ 50)”. For the same molecule, in series [2], the “Ms Plasma nucleoside AUC” value is on record as “+++ (500 < +++ ≤ 1500)” and the “Ms Plasma nucleoside Cmax” value was “++++ (100 < ++++)”.

For `CC(C)OC(=O)[C@H](C)NP1(=O)OC[C@H]2O[C@@H](n3cnc4c(N)ncnc43)[C@](C)(Cl)[C@@H]2O1` (single isomer, unassigned; diastereomer 2) [Compound 77ii Diastereomer 2], in series [1], the “Ms Liver TP AUC” value is listed as “++++ (1500 < ++++)” and the “Ms Liver TP Cmax” value is reported as “++++ (100 < ++++)”. Further, in series [2], the “Ms Plasma nucleoside AUC” value is reported as “+ (+ ≤ 150)” and the “Ms Plasma nucleoside Cmax” value is reported as “+ (+ ≤ 15)”.

For `CC(C)OC(=O)[C@H](C)NP1(=O)OC[C@H]2O[C@@H](n3cnc4c(N)ncnc43)[C@](C)(Cl)[C@@H]2O1` (single isomer, unassigned; diastereoisomer 2) [Compound 77ii Diastereoisomer 2], the concentration giving a half-maximal response (EC50) at HCV genotype 1b replicon (setting [3]) was in the range of 0.25 to 1 µM. In the series with Zluc cells, this molecule gave a CC50 of over 50 µM.

As for `CC(C)OC(=O)[C@@H](C)NP(=O)(OC[C@H]1O[C@@H](n2ccc(=O)[nH]c2=O)[C@](C)(Cl)[C@@H]1O)SC1CCCC1` (single isomer, unassigned; diastereomer 1) [Compound 206i Diastereomer 1], in series [1], the “Ms Liver TP AUC” value is on record as “+++ (500 < +++ ≤ 1500)” and the “Ms Liver TP Cmax” value is “++++ (100 < ++++)”. Also, in series [2], the “Ms Plasma nucleoside AUC” value is listed as “+++ (500 < +++ ≤ 1500)” and the “Ms Plasma nucleoside Cmax” value is listed as “+++ (50 < +++ ≤ 100)”.

As for `CCOc1nc(N)nc2c1ncn2[C@@H]1O[C@H](COP(=O)(N[C@@H](C)C(=O)OC(C)C)Oc2ccccc2)[C@@H](O)[C@@]1(C)Cl` (single isomer, unassigned) [Compound 17ii Diastereomer 2], in series [1], the “Ms Liver TP AUC” value is on record as “BLQ” and the “Ms Liver TP Cmax” value is recorded as “BLQ”. In addition, the EC50 with HCV genotype 1b replicon (setting [3]) was in the range of 1 to 10 µM. In the series with Zluc cells, the CC50 is over 50 µM.

In the case of `CC(COC(=O)C(C)C)NP1(=O)OCC2OC(n3cnc4c(N)ncnc43)C(C)(Cl)C2O1` (single isomer, unassigned; diastereoisomer 1) [Compound 95 Diastereoisomer 1], on HCV genotype 1b replicon (setting [3]), the EC50 lay in the range of 0.25 to 1 µM. This molecule came in with a cytotoxic concentration (CC50) in the series on Zluc cells of over 50 µM.

Turning to `CC(C)(CO)C(=O)SCCOP(=O)(NCc1ccccc1)OC[C@H]1O[C@@H](n2ccc(=O)[nH]c2=O)[C@](C)(Cl)[C@@H]1O` (single isomer, unassigned) [Compound 54 Diastereomer 1], in series [1], the “Ms Liver TP AUC” value was “+ (+ ≤ 150)” and the “Ms Liver TP Cmax” value is recorded as “++ (15 < ++ ≤ 50)”. Also, in series [2], the “Ms Plasma nucleoside AUC” value is listed as “+++ (500 < +++ ≤ 1500)” and the “Ms Plasma nucleoside Cmax” value was “+++ (50 < +++ ≤ 100)”.

With `CC(C)OC(=O)[C@@H](C)NP(=O)(OC[C@H]1O[C@@H](n2ccc(=O)[nH]c2=O)[C@](C)(Cl)[C@@H]1O)SC1CCCC1` (single isomer, unassigned; diastereomer 2) [Compound 206i Diastereomer 2], in series [1], the “Ms Liver TP AUC” value is “+++ (500 < +++ ≤ 1500)” and the “Ms Liver TP Cmax” value is recorded as “+++ (50 < +++ ≤ 100)”. Also, in series [2], the “Ms Plasma nucleoside AUC” value is “+++ (500 < +++ ≤ 1500)” and the “Ms Plasma nucleoside Cmax” value was “+++ (50 < +++ ≤ 100)”.

For `CC(C)OC(=O)[C@H](C)NP(=O)(OCCSC(=O)C(C)(C)C)OC[C@H]1O[C@@H](n2ccc(=O)[nH]c2=O)[C@](C)(Cl)[C@@H]1O` (single isomer, unassigned; diastereomer 1) [Compound 43ii Diastereomer 1], the half-maximal effective concentration (EC50) on HCV genotype 1b replicon (setting [3]) is 0.25 to 1 µM. The CC50 in the series on Zluc cells was over 50 µM.

On to `CC(C)C(=O)OC[C@H](C)NP1(=O)OC[C@H]2O[C@@H](n3cnc4c(N)ncnc43)[C@](C)(Cl)[C@@H]2O1` (single isomer, unassigned; diastereomer 1) [Compound 95i Diastereomer 1], for which, in series [1], the “Ms Liver TP AUC” value is on record as “+ (+ ≤ 150)” and the “Ms Liver TP Cmax” value is “+ (+ ≤ 15)”. For the same molecule, in series [2], the “Ms Plasma nucleoside AUC” value is reported as “+ (+ ≤ 150)” and the “Ms Plasma nucleoside Cmax” value is “+ (+ ≤ 15)”.

`CC(C)(CO)C(=O)SCCOP(=O)(NCc1ccccc1)OC[C@H]1O[C@@H](n2ccc(=O)[nH]c2=O)[C@](C)(Cl)[C@@H]1O` (single isomer, unassigned; diastereomer 2) [Compound 54 Diastereomer 2]: in series [1], the “Ms Liver TP AUC” value is given as “+ (+ ≤ 150)” and the “Ms Liver TP Cmax” value is listed as “+ (+ ≤ 15)”. For the same molecule, in series [2], the “Ms Plasma nucleoside AUC” value was “+++ (500 < +++ ≤ 1500)” and the “Ms Plasma nucleoside Cmax” value is recorded as “++ (15 < ++ ≤ 50)”.

For `CC(C)OC(=O)[C@H](C)NP(=O)(OC[C@H]1O[C@@H](n2cc(F)c3c(N)ncnc32)[C@](C)(Cl)[C@@H]1O)Oc1ccccc1` (single isomer, unassigned) [Compound 207ii Diastereomer 2], in the series with HCV genotype 1b replicon (setting [3]), the concentration giving a half-maximal response (EC50) was over 10 µM. Also, in the series on Zluc cells, the cytotoxic concentration (CC50) was over 50 µM.

On to `CC(C)OC(=O)[C@H](C)NP1(=O)OC[C@H]2O[C@@H](n3cnc4c(N)ncnc43)[C@](C)(Cl)[C@@H]2O1` (single isomer, unassigned; diastereomer 1) [Compound 77ii Diastereomer 1], for which, in series [1], the “Ms Liver TP AUC” value is listed as “++++ (1500 < ++++)” and the “Ms Liver TP Cmax” value was “++++ (100 < ++++)”. For the same molecule, in series [2], the “Ms Plasma nucleoside AUC” value is on record as “+ (+ ≤ 150)” and the “Ms Plasma nucleoside Cmax” value is reported as “+ (+ ≤ 15)”.

Turning to `CC(C)C(=O)OC[C@H](C)NP1(=O)OC[C@H]2O[C@@H](n3cnc4c(N)ncnc43)[C@](C)(Cl)[C@@H]2O1` (single isomer, unassigned; diastereomer 2) [Compound 95i Diastereomer 2], in series [1], the “Ms Liver TP AUC” value is recorded as “++ (150 < ++ ≤ 500)” and the “Ms Liver TP Cmax” value was “+ (+ ≤ 15)”. Besides, in series [2], the “Ms Plasma nucleoside AUC” value is given as “+ (+ ≤ 150)” and the “Ms Plasma nucleoside Cmax” value is “+ (+ ≤ 15)”.
